Assays:
[1] = molecular target: T1, Sodium-dependent dopamine transporter (Rattus norvegicus, UniProt P23977); assay: Inhibition [3H]DA uptake in rat striatal synaptosomes.; assay type: functional, subcellular, Brain
[2] = molecular target: T1, Sodium-dependent dopamine transporter; assay: Inhibition [3H]-cocaine binding to Cocaine receptor in rat striatal membranes.; assay type: cell membranes
[3] = molecular target: Sodium-dependent dopamine transporter (Rattus norvegicus) (UniProt P23977); assay: Ability to inhibit binding of [3H]cocaine to Cocaine receptor in rat brain; assay type: tissue-based
[4] = molecular target: Sodium-dependent dopamine transporter (Rattus norvegicus) (UniProt P23977); assay: Potency ratio for Cocaine receptor (IC50 cocaine /IC50 compound)
[5] = molecular target: Sodium-dependent dopamine transporter (Rattus norvegicus) (UniProt P23977); assay: Dopamine (DA) uptake; assay type: functional
[6] = molecular target: Sodium-dependent dopamine transporter (Rattus norvegicus) (UniProt P23977); assay: Value is difference between the cocaine binding and DA uptake

Sodium-dependent dopamine transporter (Rattus norvegicus), sequence (P23977 whole entry): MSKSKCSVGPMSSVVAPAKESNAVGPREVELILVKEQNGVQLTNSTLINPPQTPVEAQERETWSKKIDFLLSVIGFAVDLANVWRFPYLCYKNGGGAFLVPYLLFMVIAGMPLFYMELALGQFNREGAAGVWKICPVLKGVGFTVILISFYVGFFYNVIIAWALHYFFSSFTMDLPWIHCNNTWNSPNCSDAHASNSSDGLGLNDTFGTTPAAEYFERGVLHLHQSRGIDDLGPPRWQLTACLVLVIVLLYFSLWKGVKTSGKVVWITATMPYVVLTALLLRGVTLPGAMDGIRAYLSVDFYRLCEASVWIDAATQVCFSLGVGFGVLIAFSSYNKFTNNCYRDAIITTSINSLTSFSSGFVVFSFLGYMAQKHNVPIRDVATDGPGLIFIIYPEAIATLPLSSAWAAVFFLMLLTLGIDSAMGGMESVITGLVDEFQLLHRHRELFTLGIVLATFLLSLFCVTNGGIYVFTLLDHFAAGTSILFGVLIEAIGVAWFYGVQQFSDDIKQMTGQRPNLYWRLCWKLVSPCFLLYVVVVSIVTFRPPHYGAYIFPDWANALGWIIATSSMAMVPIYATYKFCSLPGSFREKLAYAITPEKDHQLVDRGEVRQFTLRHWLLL
T1 sequence (P23977 whole entry): as above

With `COC(=O)C1C(Cc2ccc3ccccc3c2)CC2CCC1N2C` (centres undefined) the IC50 [1] was 1350 nM.
`COC(=O)[C@@H]1C2CC[C@H](C[C@H]1OC(=O)c1ccc3ccccc3c1)N2C` showed an IC50 [2] of 327 nM, a Log potency ratio [3] of 0.07 and a Log potency ratio [4] of -0.51. For the same compound, the IC50 [1] was 813 nM, the Log potency ratio [5] was -0.59 and the Log potency ratio [6] was 0.08.
With `COC(=O)C1C(c2ccc(N)cc2)CC2CCC1N2C` (centres undefined) the Log potency ratio [3] was 2.58, the Log potency ratio [4] was -0.14 and the Log potency ratio [5] was 0.18. The Log potency ratio [6] was -0.32.
Work on `COC(=O)[C@H]1C2CC[C@H](C[C@H]1c1ccc3ccccc3c1)N2C` yielded an IC50 [2] of 3.32 nM, a Log potency ratio [3] of 1.66 and a Log potency ratio [4] of 1.48. For the same compound, the IC50 [1] was 3.53 nM, the Log potency ratio [5] was 1.77 and the Log potency ratio [6] was -0.29.
`COC(=O)[C@@H]1C2CC[C@H](C[C@@H]1c1ccccc1)N2C` showed a Log potency ratio [4] of 0.53, a Log potency ratio [5] of 0.66 and a Log potency ratio [6] of -0.13.
With `C=C(c1ccccc1)C1CC2CCC(C1C(=O)OC)N2C` (centres undefined) the IC50 [2] was 71.6 nM, the Log potency ratio [3] was -0.83 and the Log potency ratio [4] was 0.15. The IC50 [1] was 138 nM, the Log potency ratio [5] was 0.18 and the Log potency ratio [6] was -0.03.
For `COC(=O)[C@@H]1C2CC[C@H](C[C@H]1/C=C/c1ccccc1)N2C`, the IC50 [2] was 2.1 nM, the Log potency ratio [3] was 0.48 and the Log potency ratio [4] was 1.68. For the same compound, the IC50 [1] was 5.88 nM, the Log potency ratio [5] was 1.55 and the Log potency ratio [6] was 0.13.
In the case of `COC(=O)C1C(CCCc2ccccc2)CC2CCC1N2C` (centres undefined), the IC50 [2] is reported as 344 nM, the Log potency ratio [3] is reported as -1.84 and the Log potency ratio [4] is reported as -0.53. For the same compound, the IC50 [1] was 2680 nM, the Log potency ratio [5] was -1.11 and the Log potency ratio [6] was 0.58.
`COC(=O)C1C(Cc2ccccc2)CC2CCC1N2C` (centres undefined) was tested, and the IC50 [1] was 1020 nM.
`COC(=O)C1C(c2ccc([N+](=O)[O-])cc2)CC2CCC1N2C` (centres undefined) gave a Log potency ratio [3] of 1.48, a Log potency ratio [4] of 0.006 and a Log potency ratio [6] of -0.134.
`COC(=O)[C@H]1[C@@H](c2ccc(F)cc2)C[C@H]2CC[C@H]1N2C` was tested, and the Log potency ratio [3] was -0.49, the Log potency ratio [4] was 0.59 and the Log potency ratio [5] was 0.94. For the same compound, the Log potency ratio [6] was -0.35.
With `COC(=O)C1C(OC(=O)c2cccc3ccccc23)CC2CCC1N2C` (centres undefined) the IC50 [2] was 742 nM, the Log potency ratio [3] was 0.01 and the Log potency ratio [4] was -0.87. It also gave an IC50 [1] of 1190 nM, a Log potency ratio [5] of -0.76 and a Log potency ratio [6] of -0.11.
`COC(=O)[C@@H]1C2CC[C@H](C[C@H]1c1ccc(-c3ccccc3)cc1)N2C` gave an IC50 [2] of 10.3 nM, a Log potency ratio [3] of 0.9 and a Log potency ratio [4] of 0.99. It also gave an IC50 [1] of 29.4 nM, a Log potency ratio [5] of 0.85 and a Log potency ratio [6] of 0.14.
With `COC(=O)[C@@H]1C2CC[C@H](C[C@H]1CCc1ccccc1)N2C` the IC50 [2] was 9.94 nM, the Log potency ratio [3] was -0.77 and the Log potency ratio [4] was 1.01. The IC50 [1] was 70.5 nM, the Log potency ratio [5] was 0.47 and the Log potency ratio [6] was 0.54.
